The text below walks through data of ChEMBL document CHEMBL1201862, “PubChem BioAssay data set” (2004).

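The compound was tested at five concentrations on cells cultured in 96-well plates, with a 48-hour exposure period. GI50 is the concentration that inhibits growth by half.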 Active and inactive are the calls of the source. No stated cut-off is given here; in the data, active = GI50 up to about 1.1 µM and inactive = higher.

Test in all cases: growth of human tumour cells (NCI), 48 h
Assay [1] deals with CAKI-1.
Assay [2] concerns HCT-15.
The subject of assay [3] is IGROV-1.
Assay [4] has as its system SN12C.
The subject of assay [5] is SK-MEL-2.
Assay [6] concerns HOP-62.
The test system of assay [7] is HT-29.
Assay [8] has as its system OVCAR-3.
The test system of assay [9] is A498.
The test system of assay [10] is HOP-92.
The test system of assay [11] is SR.
Assay [12] concerns CCRF-CEM.
For assay [13], the system named is SF-295.
For assay [14], the system named is LOX IMVI.
In assay [15] the test system is SW-620.
Assay [16] relates to 786-0.
The subject of assay [17] is HCT-116.
Assay [18] concerns OVCAR-8.

`CN(C)CCNC(=O)c1cccc2ncc(-c3ccccc3)nc12`: the GI50 in [1] is 6.58 µM (inactive); in assay [2] it was 5.37 µM; in assay [3] it was 20.5 µM (inactive); in assay [4] it was 6.14 µM (inactive); in assay [5] it was 14.6 µM (inactive); in assay [6] it was 9.25 µM (inactive). In addition, the GI50 is 6.17 µM (inactive) in assay [7]; 19.5 µM (inactive) in assay [8]; 6.15 µM (inactive) in assay [9]; 18.7 µM (inactive) in assay [10]; 1.9 µM (inactive) in [11]; 8.99 µM (inactive) in assay [12]. The GI50 in assay [13] was 14.2 µM (inactive); in [14], 7.66 µM (inactive); in assay [15], 5.31 µM (inactive); in [16], 10 µM (inactive); in [17], 4.26 µM (inactive); in assay [18] it was 7.52 µM (inactive).
With `CCC(=O)N1C(=S)SC[C@H]1C(=O)OC`, the GI50 in assay [1], in assay [3], in assay [4], in assay [6], in [7] and in assay [8] was > 100 µM (inactive) each time. Also, the GI50 in assay [9] was > 100 µM (inactive); in assay [10] it was > 100 µM (inactive); in assay [11], > 100 µM (inactive); in assay [12], 69.2 µM (inactive); in [13], > 100 µM (inactive); in assay [14] it was > 100 µM (inactive). Further, the GI50 in assay [15], in assay [16], in [17] and in assay [18] was > 100 µM (inactive) in each case.
Turning to `COC(=O)C1C(=O)CC2CCCCC21` (configuration not stated), the GI50 in [1] is > 100 µM (inactive); in assay [2], over 100 µM; in assay [3] it was > 100 µM (inactive); in assay [4] it was > 100 µM (inactive); in [5], > 100 µM (inactive); in assay [6], > 100 µM (inactive). The GI50 in assay [8], in assay [9], in assay [11], in assay [12], in [15] and in assay [16] was > 100 µM (inactive) throughout. The GI50 in [17] was > 100 µM (inactive).
Regarding `CCOP1(=O)C=C(C)C(Cl)=C(C)C1` (configuration not stated), the GI50 was 23.3 µM in assay [2]; 56.1 µM (inactive) in assay [3]; 21 µM (inactive) in assay [4]; 8.91 µM (inactive) in assay [5]; > 100 µM (inactive) in assay [6]; 24.5 µM (inactive) in assay [7]. Besides, the GI50 in assay [8] was 37.3 µM (inactive); in [10], 19.6 µM (inactive); in assay [11] it was 27.2 µM (inactive); in [12], 17.6 µM (inactive); in assay [13], 47.1 µM (inactive); in assay [14], 20.4 µM (inactive). Besides, the GI50 in assay [15] was 21.1 µM (inactive); in assay [16], 28.3 µM (inactive); in assay [17], 17.2 µM (inactive); in assay [18], 30 µM (inactive).
Take `Cc1ccccc1NC(=O)C1C(=O)N(c2ccccc2C)C(=O)/C1=N\N` (configuration not stated): the GI50 is > 100 µM (inactive) in [1]; over 100 µM in [2]; > 100 µM (inactive) in assay [3]; > 100 µM (inactive) in assay [4]; > 100 µM (inactive) in [5]; > 100 µM (inactive) in [6]. In addition, the GI50 in assay [7], in assay [8], in assay [9], in assay [10], in assay [11] and in [12] was > 100 µM (inactive) throughout. Also, the GI50 in [13], in assay [14], in [15], in assay [16], in [17] and in [18] was > 100 µM (inactive) each time.
On to `Cc1cccc(C(C)(C)C)c1NC(=O)C(=O)C(c1cnc2ccccc2n1)[N+](=O)[O-]` (configuration not stated), for which the GI50 in assay [1] was > 100 µM (inactive); in [2], over 100 µM; in assay [3], > 100 µM (inactive); in assay [4], > 100 µM (inactive); in [5] it was > 100 µM (inactive); in assay [6], > 100 µM (inactive). The GI50 in assay [7] was > 100 µM (inactive); in assay [9], > 100 µM (inactive); in assay [10] it was > 100 µM (inactive); in [11], > 100 µM (inactive); in assay [12] it was 32.1 µM (inactive); in [13] it was > 100 µM (inactive). For the same molecule, the GI50 in [14], in assay [15], in assay [16], in assay [17] and in assay [18] was > 100 µM (inactive) each time.
Turning to `CCOC(=O)C(=O)Nc1ccc(C)c(C)c1`, the GI50 was > 100 µM (inactive) in [1]; over 41.2 µM in [2]; > 100 µM (inactive) in assay [3]; > 100 µM (inactive) in [4]; > 100 µM (inactive) in [5]; > 100 µM (inactive) in assay [6]. Further, the GI50 was > 56.2 µM (inactive) in assay [7]; > 100 µM (inactive) in assay [9]; < 0.01 µM (active) in assay [11]; > 100 µM (inactive) in assay [12]; > 100 µM (inactive) in assay [13]; > 56.1 µM (inactive) in assay [14]. For the same molecule, the values for the GI50 in assay [15], in assay [16] and in [17] were 5.81 µM (inactive), > 100 µM (inactive) and > 84.7 µM (inactive), respectively.
In the case of `O=C(/C=C/c1ccccc1O)c1cccc2ccccc12`, the GI50 was > 92.9 µM (inactive) in [1]; 23.7 µM in assay [2]; > 51.4 µM (inactive) in assay [3]; 44.4 µM (inactive) in assay [4]; > 100 µM (inactive) in assay [5]; > 81.7 µM (inactive) in assay [6]. The GI50 in assay [7] was > 66.5 µM (inactive); in [8], 30.2 µM (inactive); in assay [9], > 100 µM (inactive); in [10], > 52.2 µM (inactive); in [11] it was 31.3 µM (inactive); in assay [12], 18.2 µM (inactive). The GI50 in assay [13] was > 100 µM (inactive); in assay [14], > 53.5 µM (inactive); in [15] it was > 28.1 µM (inactive); in assay [16] it was 58.7 µM (inactive); in assay [17] it was 27.6 µM (inactive); in assay [18], > 71 µM (inactive).
In the case of `CC1=N/C(=C\c2ccc(N)cc2)C(=O)N1Nc1nnc(NN2C(=O)/C(=C/c3ccc(N)cc3)N=C2C)c2ccccc12`, the GI50 in [2] was 82.2 µM; in assay [3] it was 85.9 µM (inactive); in [4], 96.2 µM (inactive); in assay [6], 23.1 µM (inactive); in assay [7] it was > 100 µM (inactive); in assay [9], > 100 µM (inactive). Besides, the GI50 is > 100 µM (inactive) in [10]; 30.1 µM (inactive) in assay [11]; 18.6 µM (inactive) in [12]; 26.6 µM (inactive) in [13]; 41.9 µM (inactive) in assay [14]; 83.9 µM (inactive) in assay [15]. Moreover, the values for the GI50 in [16], in assay [17] and in assay [18] were 32.5 µM (inactive), > 100 µM (inactive) and > 100 µM (inactive), respectively.
For `OC(c1cc2ccccc2[nH]1)C(O)(c1cc2ccccc2[nH]1)c1cc2ccccc2[nH]1` (configuration not stated), the GI50 in assay [1] is 19.9 µM (inactive); in [2], 10 µM; in [3], 8.81 µM (inactive); in assay [4], 5.53 µM (inactive); in assay [5], 17.9 µM (inactive); in assay [6], 15.4 µM (inactive). The GI50 in [7] was 9.18 µM (inactive); in [8], 4.28 µM (inactive); in assay [10] it was 14.9 µM (inactive); in assay [11] it was 7.69 µM (inactive); in assay [12] it was 12.3 µM (inactive); in [13] it was 7.23 µM (inactive). For the same molecule, the GI50 was 10.8 µM (inactive) in assay [14]; 10.1 µM (inactive) in assay [15]; 6.89 µM (inactive) in assay [16]; 6.92 µM (inactive) in assay [17]; 15.9 µM (inactive) in assay [18].
In the case of `CC1C2CC=CC(=O)[C@@]2(C)CCC12OCCO2` (some centres not stated), the GI50 in [1], in assay [3], in [4], in assay [5], in [6] and in assay [7] was > 100 µM (inactive) throughout. In addition, the GI50 in assay [8], in assay [9], in [10], in [11], in assay [12] and in assay [13] was > 100 µM (inactive) throughout. The GI50 in assay [15], in assay [16], in assay [17] and in assay [18] was > 100 µM (inactive) in each case.
`C=C1C(=O)O[C@@H]2[C@H]1CCC(C)=C1C=CC(=O)[C@]12C`: the GI50 in assay [1] was 15.1 µM (inactive); in assay [3], 21.8 µM (inactive); in [4], 12.6 µM (inactive); in [5], 20.7 µM (inactive); in assay [7] it was 10.9 µM (inactive); in assay [8], 16.7 µM (inactive). The GI50 in assay [10] is 6.22 µM (inactive); in assay [11], 13.6 µM (inactive); in assay [12] it was 3.15 µM (inactive); in assay [13] it was 17 µM (inactive); in assay [15] it was 6.21 µM (inactive); in assay [16], > 10 µM (inactive). In addition, the results for the GI50 in assay [17] and in assay [18] were 12.2 µM (inactive) and 17.3 µM (inactive), respectively.
`O=C1c2cccc(O)c2C(=O)c2c(O)cc(CO)cc21` [ALOE-EMODIN]: the GI50 in assay [1] was 49.1 µM (inactive); in [2], 28.1 µM; in assay [4], 35.4 µM (inactive); in [5], 91.8 µM (inactive); in assay [6], > 100 µM (inactive); in [7], 30.9 µM (inactive). Besides, the GI50 in assay [9] is 74.3 µM (inactive); in assay [10], > 100 µM (inactive); in assay [11], 32.9 µM (inactive); in assay [12] it was 31.3 µM (inactive); in assay [13], 96.2 µM (inactive); in assay [14], 26.2 µM (inactive). The GI50 in [15] is 30.5 µM (inactive); in [17], 30.1 µM (inactive).
